Key:
[1] = Microsomal stability, human liver microsomes (predicted hepatic clearance); conditions: predicted from in vitro microsomal stability data
GLP-1R = GLP-1R (Homo sapiens, UniProt P43220); test: GLP-1R activation: cAMP increase in CHO cells stably expressing GLP-1R; format: cell-based; conditions: cAMP increase, CHO cells stably expressing GLP-1R, 10 point dose response, 30 minutes incubation; read-out: EC50
Sequence of GLP-1R (P43220 24-463): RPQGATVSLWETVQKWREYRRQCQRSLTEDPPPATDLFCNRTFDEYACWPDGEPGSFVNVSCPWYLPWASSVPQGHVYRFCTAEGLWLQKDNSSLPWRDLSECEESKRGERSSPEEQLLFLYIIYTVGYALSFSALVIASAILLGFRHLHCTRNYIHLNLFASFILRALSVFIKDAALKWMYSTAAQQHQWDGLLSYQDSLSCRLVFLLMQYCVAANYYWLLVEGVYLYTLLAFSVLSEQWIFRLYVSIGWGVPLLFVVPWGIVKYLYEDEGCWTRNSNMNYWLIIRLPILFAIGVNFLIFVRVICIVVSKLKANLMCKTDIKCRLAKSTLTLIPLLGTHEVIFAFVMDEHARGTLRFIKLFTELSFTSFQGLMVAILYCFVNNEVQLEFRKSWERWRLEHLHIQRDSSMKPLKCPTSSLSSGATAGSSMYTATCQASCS

Row | SMILES | Predicted Hepatic Clearance (Pred. Cl.) [1] | EC50 (GLP-1R)
1 | CN1C[C@@](C)(Cn2c(Cc3cc(F)c(-c4cccc(OCc5ccc(C#N)cc5F)n4)cc3F)nc3ccc(C(=O)O)cc32)C1=O (racemic) [Example 272, 2-(4-(6-((4-cyano-2-fluorobenzyl)oxy)pyridin-2-yl)-2,5-difluorobenzyl)-1-((1,3-dimethyl-2-oxoazetidin-3-yl)methyl)-1H-benzo[d]imidazole-6-carboxylic acid] | 9.67 mL/min/kg | 1.66 nM
2 | CC(C#N)Cn1c(Cc2cc(F)c(-c3cccc(OCc4ccc(C#N)cc4F)n3)cc2F)nc2ccc(C(=O)O)cc21 (racemic) [Example 306, 2-(4-(6-((4-cyano-2-fluorobenzyl)oxy)pyridin-2-yl)-2,5-difluorobenzyl)-1-(2-cyanopropyl)-1H-benzo[d]imidazole-6-carboxylic acid] | 6 mL/min/kg | 1.86 nM
3 | COCCn1c([C@@H](C)c2ccc(-c3cccc(OCc4ccc(C#N)cc4F)n3)cc2)nc2ccc(C(=O)O)cc21 (racemic) [Example 447, 2-(1-(4-(6-((4-cyano-2-fluorobenzyl)oxy)pyridin-2-yl)phenyl)ethyl)-1-(2-methoxyethyl)-1H-benzo[d]imidazole-6-carboxylic acid] | 5 mL/min/kg | 1100 nM
4 | N#Cc1ccc(COc2cccc(-c3ccc(Cc4nc5ccc(C(=O)O)cc5n4C[C@H]4CCS4(=O)=O)cc3)n2)c(F)c1 (racemic) [Example 475, 2-(4-(6-((4-cyano-2-fluorobenzyl)oxy)pyridin-2-yl)benzyl)-1-((1,1-dioxidothietan-2-yl)methyl)-1H-benzo[d]imidazole-6-carboxylic acid] | 2 mL/min/kg | 325 nM
5 | C[C@@]1(Cn2c(Cc3cc(F)c(-c4cccc(OCc5ccc(C#N)cc5F)n4)cc3F)nc3ccc(C(=O)O)cc32)CCCO1 (racemic) [Example 548, 2-(4-(6-((4-cyano-2-fluorobenzyl)oxy)pyridin-2-yl)-2,5-difluorobenzyl)-1-((2-methyltetrahydrofuran-2-yl)methyl)-1H-benzo[d]imidazole-carboxylic acid] | 7.5 mL/min/kg | 9.01 nM
6 | CC1(C)CC[C@@H](Cn2c(Cc3cc(F)c(-c4cccc(OCc5ccc(C#N)cc5F)n4)cc3F)nc3ccc(C(=O)O)cc32)O1 (racemic) [Example 549, 2-(4-(6-((4-cyano-2-fluorobenzyl)oxy)pyridin-2-yl)-2,5-difluorobenzyl)-1-((5,5-dimethyltetrahydrofuran-2-yl)methyl)-1H-benzo[d]imidazole-6-carboxylic acid] | 12 mL/min/kg | 45.5 nM
7 | N#Cc1ccc(COc2cccc(-c3cc(F)c(Cc4nc5ccc(C(=O)O)cc5n4C[C@@H]4CC(F)(F)CO4)cc3F)n2)c(F)c1 (racemic) [Example 573, 2-(4-(6-((4-cyano-2-fluorobenzyl)oxy)pyridin-2-yl)-2,5-difluorobenzyl)-1-((4,4-difluorotetrahydrofuran-2-yl)methyl)-1H-benzo[d]imidazole-6-carboxylic acid] | 6.5 mL/min/kg | 0.89 nM
8 | COCCn1c(Cc2ccc(-c3cccc(OCc4ccc(C#N)cc4F)n3)cc2F)nc2ccc(C(O)CO)cc21 (racemic) [Example 582] | 15.2 mL/min/kg | 3460 nM
9 | COCCn1c(Cc2ccc(-c3nc(OCc4ccc(C#N)cc4F)ccc3C)cc2)nc2ccc(C(=O)O)cc21 (single isomer, unassigned) [Example 23, 2-(4-(6-((4-cyano-2-fluorobenzyl)oxy)-3-methylpyridin-2-yl)benzyl)-1-(2-methoxyethyl)-1H-benzo[d]imidazole-6-carboxylic acid] | 13.8 mL/min/kg | 1100 nM
10 | COCCn1c(Cc2ccc(-c3cc(C#Cc4ccccc4)cc(OCc4ccc(C#N)cc4F)n3)cc2F)nc2ccc(C(=O)O)cc21 [Example 100, 2-(4-(6-((4-cyano-2-fluorobenzyl)oxy)-4-(phenylethynyl)pyridin-2-yl)-2-fluorobenzyl)-1-(2-methoxyethyl)-1H-benzo[d]imidazole-6-carboxylic acid] | <1.83 mL/min/kg | 
11 | COCCn1c(Cc2ccc(-c3cccc(OCc4ccc(C#N)cc4F)n3)cc2-c2cccnc2)nc2ccc(C(=O)O)cc21 [Example 185, 2-(4-(6-((4-cyano-2-fluorobenzyl)oxy)pyridin-2-yl)-2-(pyridin-3-yl)benzyl)-1-(2-methoxyethyl)-1H-benzo[d]imidazole-6-carboxylic acid] | 12 mL/min/kg | 
12 | COCCn1c(Cc2c(F)cc(-c3cnccc3OCc3ccc(C#N)cc3F)cc2F)nc2ccc(C(=O)O)cc21 [Example 191, 2-(4-(4-((4-cyano-2-fluorobenzyl)oxy)pyridin-3-yl)-2,6-difluorobenzyl)-1-(2-methoxyethyl)-1H-benzo[d]imidazole-carboxylic acid] | 7.83 mL/min/kg | 
13 | COCCn1c(Cc2ccc(-c3nnc(OCc4ccc(C#N)cc4F)s3)cc2F)nc2ccc(C(=O)O)cc21 [Example 213, 2-(4-(5-((4-cyano-2-fluorobenzyl)oxy)-1,3,4-thiadiazol-2-yl)-2-fluorobenzyl)-1-(2-methoxyethyl)-1H-benzo[d]imidazole-carboxylic acid] | 9.17 mL/min/kg | 
14 | COCCn1c(Cc2ccc(-c3cccc(OCc4ccc(C#N)cc4F)n3)c(NC(C)=O)c2)nc2ccc(C(=O)O)cc21 [Example 253, 2-(3-acetamido-4-(6-((4-cyano-2-fluorobenzyl)oxy)pyridin-2-yl)benzyl)-1-(2-methoxyethyl)-1H-benzo[d]imidazole-6-carboxylic acid] | 14 mL/min/kg | 
15 | COCCn1c(Cn2cc(-c3cccc(OCc4ccc(C#N)cc4F)n3)cn2)nc2ccc(C(=O)O)cc21 [Example 282, 2-((4-(6-((4-cyano-2-fluorobenzyl)oxy)pyridin-2-yl)-1H-pyrazol-1-yl)methyl)-1-(2-methoxyethyl)-1H-benzo[d]imidazole-6-carboxylic acid] | 8.17 mL/min/kg | 
16 | COCCn1c(Cc2ccc(-c3cccc(OCc4ccc5cn[nH]c5c4)n3)cc2F)nc2ccc(C(=O)O)cc21 [Example 463, 2-(4-(6-((1H-indazol-6-yl)methoxy)pyridin-2-yl)-2-fluorobenzyl)-1-(2-methoxyethyl)-1H-benzo[d]imidazole-6-carboxylic acid] | 2.33 mL/min/kg | 
17 | CC(=O)N1CCC[C@H]1Cn1c(Cc2ccc(-c3ccc(F)c(OCc4ccc(Cl)cc4F)c3)cc2F)nc2ccc(C(=O)O)cc21 [Example 464, (S)-1-((1-acetylpyrrolidin-2-yl)methyl)-2-((3′-((4-chloro-2-fluorobenzyl)oxy)-3,4′-difluoro-[1,1′-biphenyl]-4-yl)methyl)-1H-benzo[d]imidazole-6-carboxylic acid] | 4 mL/min/kg | 
18 | COCCn1c(Cc2ccc(-c3cccc(OCc4cccc5cc[nH]c45)n3)cc2F)nc2ccc(C(=O)O)cc21 [Example 479, 2-(4-(6-((1H-indol-7-yl)methoxy)pyridin-2-yl)-2-fluorobenzyl)-1-(2-methoxyethyl)-1H-benzo[d]imidazole-6-carboxylic acid] | 9.33 mL/min/kg | 
19 | CC(=O)N1CCC[C@H]1Cn1c(Cc2ccc(-c3ccc(F)c(OCc4ccc(Cl)cc4F)c3)cc2F)nc2ccc(C(=O)O)cc21 [Example 482, 3-[[(2S)-1-acetylpyrrolidin-2-yl]methyl]-2-[[4-[3-[(4-chloro-2-fluoro-phenyl)methoxy]-4-fluoro-phenyl]-2-fluoro-phenyl]methyl]benzimidazole-5-carboxylic acid] | 4.83 mL/min/kg | 
20 | COCCn1c(Cc2ccc(-c3cccc(OCc4ccccc4N)n3)cc2F)nc2ccc(C(=O)O)cc21 [Example 498, 2-(4-(6-((2-aminobenzyl)oxy)pyridin-2-yl)-2-fluorobenzyl)-1-(2-methoxyethyl)-1H-benzo[d]imidazole-6-carboxylic acid] | <1.83 mL/min/kg | 
21 | COCCn1c(Cc2ccc(-c3cccc(OCn4ccc(C(=O)O)cc4=O)n3)cc2F)nc2ccc(C(=O)O)cc21 [Example 503, 2-(4-(6-((4-carboxy-2-oxopyridin-1(2H)-yl)methoxy)pyridin-2-yl)-2-fluorobenzyl)-1-(2-methoxyethyl)-1H-benzo[d]imidazole-6-carboxylic acid] | <1.83 mL/min/kg | 
22 | COCCn1c(Cc2ccc(-c3cccc(OCc4ccccc4S(C)(=O)=O)n3)cc2F)nc2ccc(C(=O)O)cc21 [Example 510, 2-(2-fluoro-4-(6-((2-(methylsulfonyl)benzyl)oxy)pyridin-2-yl)benzyl)-1-(2-methoxyethyl)-1H-benzo[d]imidazole-6-carboxylic acid] | 14.5 mL/min/kg | 
23 | CCOP(=O)(OCC)c1ccc2nc(Cc3ccc(-c4cccc(OCc5ccc(C#N)cc5F)n4)cc3F)n(CCOC)c2c1 [Example 556, Diethyl (2-(4-(6-((4-cyano-2-fluorobenzyl)oxy)pyridin-2-yl)-2-fluorobenzyl)-1-(2-methoxyethyl)-1H-benzo[d]imidazol-6-yl)phosphonate] | 19.5 mL/min/kg | 
24 | COCCn1c(Cc2ccc(-c3cccc(OCc4ccc(C(F)(F)F)nc4N)n3)cc2F)nc2ccc(C(=O)O)cc21 [Example 595, 2-(4-(6-((2-amino-6-(trifluoromethyl)pyridin-3-yl)methoxy)pyridin-2-yl)-2-fluorobenzyl)-1-(2-methoxyethyl)-1H-benzo[d]imidazole-6-carboxylic acid] | 6.17 mL/min/kg | 
25 | COCCn1c(Cc2cc(F)c(-c3ccc(F)c(OCc4cc(F)c(C#N)cc4F)n3)cc2F)nc2c(F)cc(C(=O)O)cc21 [Example 763] | 1.83 mL/min/kg | 

From patent publication US11702404B2, “GLP-1R modulating compounds” (priority 2019, dated 2023)
